Experimental data from patent US6344479B1, “Method of preventing retinopathy of prematurity in a neonate” (Farmacon-Il, LLC, priority 2001, dated 2002).

Tests used:
prematurely born infants = assay: Clinical study: development of retinopathy of prematurity (ROP) in premature neonates given NSAID; type: in vivo, human; details: for Max ROP grades: data as means per treatment group; for ROP: No (number of neonates without ROP) / ROP: Yes (number of neonates with any ROP): data as numbers of neonates per treatment group, i.v. postnatal treatment, gestation no more than 31 weeks
Description: A clinical study was carried out at the Neonatology Unit of University Hospital, Antwerp, Belgium.
Patients and Methods: 229 prematurely born infants were included in the study. All infants were born after a gestation period of no more than 31 weeks and all infants survived for a period of at least 21 days. Prospective serial retinal observation were performed by pediatric ophthalmologist starting at a postmenstrual age of 33 weeks. Evaluation for ROP in both eyes included staging and extension of disease, zone of involvement, number of clock hours, and the presence of any additional disease.

mouse = details: administered concurrently with the injury phase; normal growth not affected; cited from earlier work

| SMILES | Max ROP grades (prematurely born infants) [units] | ROP: No (number of neonates without ROP) (prematurely born infants) | ROP: Yes (number of neonates with any ROP) (prematurely born infants) | Risk of developing ROP (in words) (prematurely born infants; postnatal administration, independently of other studied neonatal risk factors) | Effect on oxygen-induced retinopathy (in words) (mouse) |
| --- | --- | --- | --- | --- | --- |
| CC(C)Cc1ccc(C(C)C(=O)O)cc1 (centres unmarked) [Ibuprofen, ibuprofen lysinate] | 0.26 | 26 | 5 | significantly reduced |  |
| COc1ccc2c(c1)c(CC(=O)O)c(C)n2C(=O)c1ccc(Cl)cc1 [Indomethacin, indomethacin] | 1 | 32 | 30 |  | improved oxygen-induced retinopathy |
